Experimental data from US11124519B2, “Cocrystal forms of ((1S,2S,4R)-4-{4-[(1S)-2,3-dihydro-1H-inden-1-ylamino]-7H-pyrrolo [2,3-d]pyrimidin-7-yl}-2-hydroxycyclopentyl) methyl sulfamate, formulations and uses thereof” (Millennium Pharmaceuticals, Inc., priority 2017, dated 2021).
Entries after “also recorded” stand apart in the source; their conditions may differ. Structures can show the parent of a compound that is named as a salt. Where two headings read alike, the source gives them in different places. Marks after values point to notes of the source that are not given here. Each block holds one compound with its values, some of them ahead of it.

Experiments:
[1] = Chemical stability under temperature/humidity stress, HPLC purity at t=0 and t=14 days; conditions: for Purity after 60° C./75% RH, 2 weeks / Purity after 60° C./ambient RH, 2 weeks: HPLC; for Chemical stability under the stressed conditions (in words): 60° C./ambient RH and 60° C./75% RH; for Purity after 60° C./75% RH, 2 weeks / Chemical stability under the stressed conditions (in words) / Purity after 60° C./ambient RH, 2 weeks: 2 weeks; for Purity T = 0: unstressed, t=0, HPLC
Description: (§1) High Performance Liquid Chromatography (HPLC): HPLC analyses were performed using an Agilent 1100 series liquid chromatograph equipped with a variable wavelength detector and binary pump for sequence file 552094, and a diode array detector and quaternary pump for the remaining sequences. […] Degasser and an autosampler (set to ˜5° C.) were equipped for all sequences. The chromatographic column was a 150×4.6 mm Aquasil C18 column with 3 μm packing (Thermo Scientific). The column temperature was set to 40° C., and the detector wavelength was 280 nm with a bandwidth of 8 nm. The injection volume was 15 μL. Mobile phase A was 0.1% TFA in Water, and mobile phase B was 0.1% TFA in Acetonitrile. The flow rate used was 0.5 L/minute. Mobile phases were filtered and degassed through a 0.45 μm nylon filter under vacuum prior to use, except for Mobile phase A used in sequence file 554410 due to time constraints.
(§2) The physical and chemical stability of the glycolic acid, hippuric acid, malonic acid, and saccharin cocrystals were evaluated at two stress conditions (60° C./ambient relative humidity and 60° C./75% relative humidity) and compared to MLN4924 HCl salt.
(§3) Chemical stability was assessed via HPLC analysis of samples at t=0 and t=14 days.

[2] = Aqueous solubility estimate in water by solvent addition method; conditions: for Solubility Estimate: solvent addition method, visual assessment, rounded to nearest whole number
[3] = Physical stability on exposure to elevated relative humidity (deliquescence); format: physicochemical; conditions: RT
Text: Each cocrystal was also exposed to elevated relative humidity (first ˜75% RH, then ˜97% RH) for specified time periods (Table 20).

[4] = 2 weeks
Description: as §1, §2, §3

[5] = physchem; conditions: water, thermodynamic from solid
[6] = Physical stability under temperature/humidity stress, XRPD comparison of unstressed and stressed samples; format: physicochemical; conditions: 60° C./75% RH, 2 weeks; listed as MLN4924-HCl
Description: Physical stability was assessed by comparison of XRPD patterns of the unstressed and stressed samples.

[7] = cited from earlier work
[8] = listed as Glycolic acid (Form A)
[9] = listed as Hippuric acid (Form B)
[10] = listed as Malonic acid (Form M)

Purity after 60° C./75% RH, 2 weeks [1, 10]: 99.0% | Chemical stability under the stressed conditions (in words) ([1]; listed as malonic acid): highest final purity | Purity after 60° C./ambient RH, 2 weeks [1, 10]: 99.1% | Purity T = 0 [1, 10]: 99.0% | Purity T = 0 ([1]; listed as malonic acid): highest initial purity | solubility ([2]; thermodynamic from solid): < 1000 µg/mL | Observations After Stress ([3]; ~75% RH stress, ~4 days): Free flowing solids | Observations After Stress ([3]; ~97% RH stress, ~1 day): Free flowing solids
Structure (SMILES): NS(=O)(=O)OC[C@@H]1C[C@@H](n2ccc3c(N[C@H]4CCc5ccccc54)ncnc32)C[C@@H]1O [Form M, ((1S,2S,4R)-4-{4-[(1S)-2,3-dihydro-1H-inden-1-ylamino]-7H-pyrrolo[2,3-d]pyrimidin-7-yl}-2-hydroxycyclopentyl)methyl sulfamate]
Chemical stability under the stressed conditions (in words) ([1]; listed as malonic acid cocrystal): little decomposition; also recorded: improvement in stability over the current MLN4924 HCl form

Solubility Estimate [2]: <1^c mg/mL | Observations After Stress ([3]; ~75% RH stress, ~4 days): Free flowing solids | Observations After Stress ([3]; ~97% RH stress, ~1 day): Free flowing solids
Structure (SMILES): NS(=O)(=O)OC[C@@H]1C[C@@H](n2ccc3c(N[C@H]4CCc5ccccc54)ncnc32)C[C@@H]1O [Form N, ((1S,2S,4R)-4-{4-[(1S)-2,3-dihydro-1H-inden-1-ylamino]-7H-pyrrolo[2,3-d]pyrimidin-7-yl}-2-hydroxycyclopentyl)methyl sulfamate]

Purity after 60° C./75% RH, 2 weeks [1]: 96.6% | Chemical stability under the stressed conditions (in words) ([1]; listed as MLN4924-HCl): limited stability | Purity after 60° C./ambient RH, 2 weeks [1]: 94.6% | Purity T = 0 [1]: 98.2% | Form change (XRPD) [6]: new unique crystalline XRPD pattern
Structure (SMILES): NS(=O)(=O)OC[C@@H]1C[C@@H](n2ccc3c(N[C@H]4CCc5ccccc54)ncnc32)C[C@@H]1O [HCl, ((1S,2S,4R)-4-{4-[(1S)-2,3-dihydro-1H-inden-1-ylamino]-7H-pyrrolo[2,3-d]pyrimidin-7-yl}-2-hydroxycyclopentyl)methyl sulfamate, reference compound]
Chemical stability during accelerated stress condition [7]: limited chemical stability

The remaining lines, values behind:

Structure (SMILES): NS(=O)(=O)OC[C@@H]1C[C@@H](n2ccc3c(N[C@H]4CCc5ccccc54)ncnc32)C[C@@H]1O [Form A, ((1S,2S,4R)-4-{4-[(1S)-2,3-dihydro-1H-inden-1-ylamino]-7H-pyrrolo[2,3-d]pyrimidin-7-yl}-2-hydroxycyclopentyl)methyl sulfamate]
Purity after 60° C./75% RH, 2 weeks [1, 8]: 93.0% | Chemical stability under the stressed conditions (in words) ([1]; listed as glycolic acid cocrystal): limited stability | Purity after 60° C./ambient RH, 2 weeks [1, 8]: 95.9% | Purity T = 0 [1, 8]: 96.9% | Solubility Estimate [2]: <1^c mg/mL | Observations After Stress ([3]; ~75% RH stress, ~3 days): Free flowing solids | Observations After Stress ([3]; ~97% RH stress, ~2 days): Free flowing solids

Structure (SMILES): NS(=O)(=O)OC[C@@H]1C[C@@H](n2ccc3c(N[C@H]4CCc5ccccc54)ncnc32)C[C@@H]1O [Form B, ((1S,2S,4R)-4-{4-[(1S)-2,3-dihydro-1H-inden-1-ylamino]-7H-pyrrolo[2,3-d]pyrimidin-7-yl}-2-hydroxycyclopentyl)methyl sulfamate]
Purity after 60° C./75% RH, 2 weeks [1, 9]: 93.9% | Chemical stability under the stressed conditions (in words) ([1]; listed as hippuric acid cocrystal): little decomposition; also recorded: improvement in stability over the current MLN4924 HCl form | Purity after 60° C./ambient RH, 2 weeks [1, 9]: 94.1% | Purity T = 0 [1, 9]: 94.4% | Solubility Estimate [2]: <1 mg/mL | Observations After Stress ([3]; ~75% RH stress, ~3 days): Free flowing solids | Observations After Stress ([3]; ~97% RH stress, ~2 days): Free flowing solids

Structure (SMILES): NS(=O)(=O)OC[C@@H]1C[C@@H](n2ccc3c(N[C@H]4CCc5ccccc54)ncnc32)C[C@@H]1O [Form F, ((1S,2S,4R)-4-{4-[(1S)-2,3-dihydro-1H-inden-1-ylamino]-7H-pyrrolo[2,3-d]pyrimidin-7-yl}-2-hydroxycyclopentyl)methyl sulfamate]
Purity after 60° C./75% RH, 2 weeks ([1]; listed as Saccharin (Form F)): 91.0% | Purity after 60° C./ambient RH, 2 weeks ([1]; listed as Saccharin (Form F)): 91.2% | Purity T = 0 ([1]; listed as Saccharin (Form F)): 91.2% | Purity T = 0 ([1]; listed as saccharin cocrystal): about 91% | Chemical stability under the stressed conditions (in words) [4]: improvement in stability over the current MLN4924 HCl form | Observations After Stress ([3]; ~75% RH stress, ~3 days): Free flowing solids | Observations After Stress ([3]; ~97% RH stress, ~2 days): Free flowing solids

Structure (SMILES): NS(=O)(=O)OC[C@@H]1C[C@@H](n2ccc3c(N[C@H]4CCc5ccccc54)ncnc32)C[C@@H]1O [Form G, ((1S,2S,4R)-4-{4-[(1S)-2,3-dihydro-1H-inden-1-ylamino]-7H-pyrrolo[2,3-d]pyrimidin-7-yl}-2-hydroxycyclopentyl)methyl sulfamate]
Observations After Stress ([3]; ~75% RH stress, ~3 days): Free flowing solids | Observations After Stress ([3]; ~97% RH stress, ~2 days): Slightly tacky solids | Observations After Stress ([3]; ~97% RH stress, ~2 days, listed as solvated piperazine cocrystal): slightly tacky

Structure (SMILES): NS(=O)(=O)OC[C@@H]1C[C@@H](n2ccc3c(N[C@H]4CCc5ccccc54)ncnc32)C[C@@H]1O [Form H, ((1S,2S,4R)-4-{4-[(1S)-2,3-dihydro-1H-inden-1-ylamino]-7H-pyrrolo[2,3-d]pyrimidin-7-yl}-2-hydroxycyclopentyl)methyl sulfamate]
Observations After Stress ([3]; ~75% RH stress, ~3 days): Free flowing solids | Observations After Stress ([3]; ~97% RH stress, ~2 days): Free flowing solids | solubility [5]: < 1000 µg/mL

Structure (SMILES): NS(=O)(=O)OC[C@@H]1C[C@@H](n2ccc3c(N[C@H]4CCc5ccccc54)ncnc32)C[C@@H]1O [Form J, ((1S,2S,4R)-4-{4-[(1S)-2,3-dihydro-1H-inden-1-ylamino]-7H-pyrrolo[2,3-d]pyrimidin-7-yl}-2-hydroxycyclopentyl)methyl sulfamate]
Observations After Stress ([3]; ~75% RH stress, ~3 days): Free flowing solids | Observations After Stress ([3]; ~97% RH stress, ~2 days): Free flowing solids

Structure (SMILES): NS(=O)(=O)OC[C@@H]1C[C@@H](n2ccc3c(N[C@H]4CCc5ccccc54)ncnc32)C[C@@H]1O [Form L, ((1S,2S,4R)-4-{4-[(1S)-2,3-dihydro-1H-inden-1-ylamino]-7H-pyrrolo[2,3-d]pyrimidin-7-yl}-2-hydroxycyclopentyl)methyl sulfamate]
Observations After Stress ([3]; ~75% RH stress, ~4 days): Free flowing solids | Observations After Stress ([3]; ~97% RH stress, ~1 day): Free flowing solids
